Reference: ChEMBL document CHEMBL1149987, “Synthesis and biological evaluation of new arachidonic acid analogs” (Bioorg Med Chem Lett, 1994)

Assays:
[1] = biological target: T1, Polyunsaturated fatty acid 5-lipoxygenase (Homo sapiens, UniProt P09917); assay: Compound was tested for the inhibition of 5-lipoxygenase of human PMN stimulated by calcium ionophore A-23187 for the formation of 5-HETE
T1 sequence (P09917 whole entry): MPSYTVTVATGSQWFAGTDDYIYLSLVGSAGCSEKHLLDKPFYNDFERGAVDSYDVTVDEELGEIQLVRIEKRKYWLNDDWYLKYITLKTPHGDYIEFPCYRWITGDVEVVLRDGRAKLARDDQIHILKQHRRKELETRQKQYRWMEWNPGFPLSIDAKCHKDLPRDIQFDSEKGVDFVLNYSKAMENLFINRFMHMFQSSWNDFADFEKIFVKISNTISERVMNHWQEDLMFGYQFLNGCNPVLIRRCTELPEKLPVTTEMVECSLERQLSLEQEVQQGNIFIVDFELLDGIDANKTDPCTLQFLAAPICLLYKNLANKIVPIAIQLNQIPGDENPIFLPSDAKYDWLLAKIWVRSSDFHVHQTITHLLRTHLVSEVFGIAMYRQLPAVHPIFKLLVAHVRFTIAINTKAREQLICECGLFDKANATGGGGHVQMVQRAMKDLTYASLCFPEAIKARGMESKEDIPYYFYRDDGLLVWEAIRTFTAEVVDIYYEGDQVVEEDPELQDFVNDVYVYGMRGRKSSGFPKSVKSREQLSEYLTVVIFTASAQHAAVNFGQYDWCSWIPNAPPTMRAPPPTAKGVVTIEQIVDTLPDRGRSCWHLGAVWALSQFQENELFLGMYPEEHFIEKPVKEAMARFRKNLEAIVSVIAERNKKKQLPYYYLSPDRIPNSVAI

[2] = biological target: T1, Polyunsaturated fatty acid 5-lipoxygenase; assay: Compound was tested for the inhibition of 5-lipoxygenase of human PMN stimulated by calcium ionophore A-23187 for the formation of leukotriene B4 (LTB4)

Structure (SMILES)	IC50 [1] [nM]	IC50 [2] [nM]
CCCCC/C=C\C/C=C\[C@@H]1CC(C)=C(C)C[C@H]1/C=C\C/C=C\CCCC(=O)O	1000	1600
CCCCC/C=C\C/C=C\[C@H]1CC(C)=C(C)C[C@H]1/C=C\C/C=C\CCCC(=O)O	1100	1900
CCCCC/C=C\C/C=C\[C@@H]1C[C@H]1/C=C\C/C=C\CCCC(=O)O (stereo in doubt; (+)-7a)	2900	2800
CCCCC/C=C\C/C=C\[C@@H]1C[C@H]1/C=C\C/C=C\CCCC(=O)O (stereo in doubt; (-)-7a)	1700	2400
